In brackets after ≈: the same amount, converted by molar mass.
Columns and labels:
Assay type in all cases: cell-based
E. faecalis = assay: MIC values, E. faecalis (Tables 1-4); details: for MIC F. faecalis: Table 2
C. trachomatis = assay: MIC values, C. trachomatis (Table 2)
E. coli = assay: MIC values, E. coli (Tables 1-4)
S. pneumo. = assay: MIC values, S. pneumo. (Tables 1-4)
S. aureus = assay: MIC values, S. aureus (Tables 1-4)
H. flu = test system: H. flu

SMILES	MIC F. faecalis (E. faecalis) [ng/mL]	MIC C. trachomatis (C. trachomatis) [ng/mL]	MIC E. coli (E. coli) [ng/mL]	MIC S. pneumo. (S. pneumo.) [ng/mL]	MIC S. aureus (S. aureus) [ng/mL]	MIC H. flu (H. flu) [ng/mL]	MIC E. faecalis (E. faecalis) [ng/mL]
CO[C@H]1/C=C/O[C@@]2(C)Oc3c(C)c(O)c4c(=O)c(c5oc6c7c(cc(O)c6nc-5c4c3C2=O)N(C)CCN7C)NC(=O)/C(C)=C\C=C\[C@H](C)[C@H](O)[C@@H](C)[C@@H](O)[C@@H](C)[C@H](OC(C)=O)[C@@H]1C [Compound 80]	1000 (≈ 1130 nM)	0.064 (≈ 0.0723 nM)	8000 (≈ 9040 nM)	0.12 (≈ 0.136 nM)	8 (≈ 9.04 nM)	1000 (≈ 1130 nM)	–
CO[C@H]1/C=C/O[C@@]2(C)Oc3c(C)c(O)c4c(=O)c(c5oc6c7c(cc(O)c6nc-5c4c3C2=O)N(C)CCN7C)NC(=O)/C(C)=C\C=C\[C@H](C)[C@H](O)[C@@H](C)[C@@H](O)[C@@H](C)[C@H](O)[C@@H]1C [Compound 81]	1000 (≈ 1190 nM)	1 (≈ 1.19 nM)	8000 (≈ 9490 nM)	60 (≈ 71.2 nM)	500 (≈ 593 nM)	2000 (≈ 2370 nM)	–
CO[C@H]1/C=C/O[C@@]2(C)Oc3c(C)c(O)c4c(=O)c(c5oc6c7c(cc(O)c6nc-5c4c3C2=O)N(C)CCCN7C)NC(=O)/C(C)=C\C=C\[C@H](C)[C@H](O)[C@@H](C)[C@@H](O)[C@@H](C)[C@H](OC(C)=O)[C@@H]1C [Compound 82]	4000 (≈ 4450 nM)	0.064 (≈ 0.0712 nM)	>8000	8 (≈ 8.9 nM)	60 (≈ 66.7 nM)	2000 (≈ 2220 nM)	–
CO[C@H]1/C=C/O[C@@]2(C)Oc3c(C)c(O)c4c(=O)c(c5oc6c7c(cc(O)c6nc-5c4c3C2=O)N(C)CCCN7C)NC(=O)/C(C)=C\C=C\[C@H](C)[C@H](O)[C@@H](C)[C@@H](O)[C@@H](C)[C@H](O)[C@@H]1C [Compound 83]	1000 (≈ 1170 nM)	1 (≈ 1.17 nM)	>8000	0.12 (≈ 0.14 nM)	120 (≈ 140 nM)	2000 (≈ 2330 nM)	–
CO[C@H]1/C=C/O[C@@]2(C)Oc3c(C)c(O)c4c(=O)c(c5oc6c7c(cc(O)c6nc-5c4c3C2=O)N(C(C)C)CCN7C(C)C)NC(=O)/C(C)=C\C=C\[C@H](C)[C@H](O)[C@@H](C)[C@@H](O)[C@@H](C)[C@H](OC(C)=O)[C@@H]1C [Compound 84]	4000 (≈ 4250 nM)	10 (≈ 10.6 nM)	>8000	8 (≈ 8.5 nM)	60 (≈ 63.8 nM)	2000 (≈ 2130 nM)	–
CO[C@H]1/C=C/O[C@@]2(C)Oc3c(C)c(O)c4c(=O)c(c5oc6cc(N(C)C7CCN(C)CC7)cc(O)c6nc-5c4c3C2=O)NC(=O)/C(C)=C\C=C\[C@H](C)[C@H](O)[C@@H](C)[C@@H](O)[C@@H](C)[C@H](O)[C@@H]1C [Compound 129]	–	–	4000 (≈ 4520 nM)	0.25 (≈ 0.282 nM)	4 (≈ 4.52 nM)	250 (≈ 282 nM)	500 (≈ 565 nM)
CO[C@H]1/C=C/O[C@@]2(C)Oc3c(C)c(O)c4c(=O)c(c5oc6cc(N(C)CCC#N)ccc6nc-5c4c3C2=O)NC(=O)/C(C)=C\C=C\[C@H](C)[C@H](O)[C@@H](C)[C@@H](O)[C@@H](C)[C@H](O)[C@@H]1C [Compound 130]	–	–	8000 (≈ 9700 nM)	8 (≈ 9.7 nM)	60 (≈ 72.7 nM)	120 (≈ 145 nM)	500 (≈ 606 nM)
CO[C@H]1/C=C/O[C@@]2(C)Oc3c(C)c(O)c4c(=O)c(c5oc6cc(N7CCOCC7)cc(O)c6nc-5c4c3C2=O)NC(=O)/C(C)=C\C=C\[C@H](C)[C@H](O)[C@@H](C)[C@@H](O)[C@@H](C)[C@H](O)[C@@H]1C [Compound 131]	–	–	>8000	0.25 (≈ 0.296 nM)	4 (≈ 4.74 nM)	120 (≈ 142 nM)	60 (≈ 71.1 nM)
CO[C@H]1/C=C/O[C@@]2(C)Oc3c(C)c(O)c4c(=O)c(c5sc6cc(N7CCOCC7)ccc6nc-5c4c3C2=O)NC(=O)/C(C)=C\C=C\[C@H](C)[C@H](O)[C@@H](C)[C@@H](O)[C@@H](C)[C@H](O)[C@@H]1C [Compound 132]	–	–	4000 (≈ 4740 nM)	1 (≈ 1.18 nM)	15 (≈ 17.8 nM)	60 (≈ 71.1 nM)	500 (≈ 592 nM)
CO[C@H]1/C=C/O[C@@]2(C)Oc3c(C)c(O)c4c(=O)c(c5n(C)c6ccccc6nc-5c4c3C2=O)NC(=O)/C(C)=C\C=C\[C@H](C)[C@H](O)[C@@H](C)[C@@H](O)[C@@H](C)[C@H](O)[C@@H]1C [Compound 134]	–	–	8000 (≈ 10600 nM)	500 (≈ 661 nM)	500 (≈ 661 nM)	2000 (≈ 2650 nM)	2000 (≈ 2650 nM)
CO[C@H]1/C=C/O[C@@]2(C)Oc3c(C)c(O)c4c(=O)c(c5oc6cccc(O)c6nc-5c4c3C2=O)NC(=O)/C(C)=C\C=C\[C@H](C)[C@H](O)[C@@H](C)[C@@H](O)[C@@H](C)[C@H](O)[C@@H]1C [Compound 136]	–	–	8000 (≈ 10500 nM)	2 (≈ 2.64 nM)	4 (≈ 5.27 nM)	250 (≈ 329 nM)	120 (≈ 158 nM)
CO[C@H]1/C=C/O[C@@]2(C)Oc3c(C)c(O)c4c(=O)c(c5oc6ccc(F)cc6nc-5c4c3C2=O)NC(=O)/C(C)=C\C=C\[C@H](C)[C@H](O)[C@@H](C)[C@@H](O)[C@@H](C)[C@H](O)[C@@H]1C [Compound 138]	–	–	>8000	60 (≈ 78.9 nM)	30 (≈ 39.4 nM)	500 (≈ 657 nM)	500 (≈ 657 nM)
CO[C@H]1/C=C/O[C@@]2(C)Oc3c(C)c(O)c4c(=O)c(c5oc6cc(F)ccc6nc-5c4c3C2=O)NC(=O)/C(C)=C\C=C\[C@H](C)[C@H](O)[C@@H](C)[C@@H](O)[C@@H](C)[C@H](O)[C@@H]1C [Compound 139]	–	–	>8000	30 (≈ 39.4 nM)	30 (≈ 39.4 nM)	500 (≈ 657 nM)	500 (≈ 657 nM)
COC1C=COC2(C)Oc3c(C)c(O)c4c(=O)c(c5oc6cc(N7CC8CCCNC8C7)cc(O)c6nc-5c4c3C2=O)NC(=O)C(C)=CC=CC(C)C(O)C(C)C(O)C(C)C(OC(C)=O)C1C (stereo not drawn) [Compound 141]	–	–	8000 (≈ 8650 nM)	0.25 (≈ 0.27 nM)	15 (≈ 16.2 nM)	2000 (≈ 2160 nM)	500 (≈ 541 nM)
COC1C=COC2(C)Oc3c(C)c(O)c4c(=O)c(c5oc6cc(N7CC8CCCNC8C7)cc(O)c6nc-5c4c3C2=O)NC(=O)C(C)=CC=CC(C)C(O)C(C)C(O)C(C)C(O)C1C (stereo not drawn) [Compound 142]	–	–	>8000	4 (≈ 4.53 nM)	120 (≈ 136 nM)	4000 (≈ 4530 nM)	4000 (≈ 4530 nM)
COC1C=COC2(C)Oc3c(C)c(O)c4c(=O)c(c5oc6cc(N7CC8CCCNC8C7)cc(O)c6nc-5c4c3C2=O)NC(=O)C(C)=CC=CC(C)C(O)C(C)C(O)C(C)C(OC(C)=O)C1C (stereo not drawn) [Compound 143]	–	–	8000 (≈ 8650 nM)	0.25 (≈ 0.27 nM)	4 (≈ 4.32 nM)	250 (≈ 270 nM)	120 (≈ 130 nM)
COC1C=COC2(C)Oc3c(C)c(O)c4c(=O)c(c5oc6cc(N7CC8CCCNC8C7)cc(O)c6nc-5c4c3C2=O)NC(=O)C(C)=CC=CC(C)C(O)C(C)C(O)C(C)C(O)C1C (stereo not drawn) [Compound 144]	–	–	>8000	2 (≈ 2.26 nM)	30 (≈ 34 nM)	1000 (≈ 1130 nM)	250 (≈ 283 nM)
CO[C@H]1/C=C/O[C@@]2(C)Oc3c(C)c(O)c4c(=O)c(c5oc6cc(N7CC8CCC(C7)N8)cc(O)c6nc-5c4c3C2=O)NC(=O)/C(C)=C\C=C\[C@H](C)[C@H](O)[C@@H](C)[C@@H](O)[C@@H](C)[C@H](OC(C)=O)[C@@H]1C [Compound 145]	–	–	>8000	0.12 (≈ 0.132 nM)	8 (≈ 8.78 nM)	2000 (≈ 2200 nM)	1000 (≈ 1100 nM)
CO[C@H]1/C=C/O[C@@]2(C)Oc3c(C)c(O)c4c(=O)c(c5oc6cc(N7CC8CCC(C7)N8)cc(O)c6nc-5c4c3C2=O)NC(=O)/C(C)=C\C=C\[C@H](C)[C@H](O)[C@@H](C)[C@@H](O)[C@@H](C)[C@H](O)[C@@H]1C [Compound 146]	–	–	4000 (≈ 4600 nM)	1 (≈ 1.15 nM)	15 (≈ 17.3 nM)	250 (≈ 288 nM)	120 (≈ 138 nM)
CCOC(=O)N1CCCC2CN(c3cc(O)c4nc5c6c7c8c(C)c(O)c6c(=O)c(c-5oc4c3)NC(=O)C(C)=CC=CC(C)C(O)C(C)C(O)C(C)C(OC(C)=O)C(C)C(OC)C=COC(C)(O8)C7=O)CC21 (stereo not drawn) [Compound 147]	–	–	>8000	8 (≈ 8.02 nM)	60 (≈ 60.2 nM)	500 (≈ 501 nM)	1000 (≈ 1000 nM)
CCOC(=O)N1CCCC2CN(c3cc(O)c4nc5c6c7c8c(C)c(O)c6c(=O)c(c-5oc4c3)NC(=O)C(C)=CC=CC(C)C(O)C(C)C(O)C(C)C(O)C(C)C(OC)C=COC(C)(O8)C7=O)CC21 (stereo not drawn) [Compound 148]	–	–	8000 (≈ 8380 nM)	0.12 (≈ 0.126 nM)	8 (≈ 8.38 nM)	500 (≈ 524 nM)	2000 (≈ 2090 nM)
COC1C=COC2(C)Oc3c(C)c(O)c4c(=O)c(c5oc6cc(N7CC8CCCN(C(C)=O)C8C7)cc(O)c6nc-5c4c3C2=O)NC(=O)C(C)=CC=CC(C)C(O)C(C)C(O)C(C)C(OC(C)=O)C1C (stereo not drawn) [Compound 149]	–	–	>8000	2 (≈ 2.07 nM)	8 (≈ 8.27 nM)	250 (≈ 259 nM)	1000 (≈ 1030 nM)
COC1C=COC2(C)Oc3c(C)c(O)c4c(=O)c(c5oc6cc(N7CC8CCCN(C(C)=O)C8C7)cc(O)c6nc-5c4c3C2=O)NC(=O)C(C)=CC=CC(C)C(O)C(C)C(O)C(C)C(O)C1C (stereo not drawn) [Compound 150]	–	–	>8000	0.06 (≈ 0.0649 nM)	4 (≈ 4.32 nM)	500 (≈ 541 nM)	2000 (≈ 2160 nM)
